The target in data set [1] is SARS-CoV-2 3CLP (Severe acute respiratory syndrome coronavirus 2 (2019-nCoV) (SARS-CoV-2), UniProt P0DTD1). Put plainly: SARS-CoV-2 3CLP FRET inhibition assay. The data set is classed as biochemical. The settings on record: 80 nM SARS-CoV-2 3CLP, 100 μM FRET substrate, pH 7.8, 37° C.; read-out: 3CL Protease IC50. The source says:
Compounds described herein were screened for SARS-CoV-2 3CLP inhibition using a Fluorescence resonance energy transfer (FRET) assay at different compound concentrations. Examples of the resulting concentration response curves are shown in FIGS. 1A and 1B, and examples of the determined 50 percent inhibition concentration (IC50) are provided in TABLE 1.
A synthesized fluorescent substrate containing the cleavage site (indicated by the arrow, ↓) of SARS-CoV-2 3CLP (2-Abz-SVTLQ↓SG-Tyr(NO2)—R—NH2) was used for the fluorescence resonance energy transfer (FRET)-based cleavage assay. The protease reaction of SARS-CoV-2 3CLP towards fluorescent substrate was performed in activity buffer (20 mM Bis Tris, pH 7.8, 1 mM DTT) at 37° C. for 10 min. The final concentration of protease used in the assay was fixed at 80 nM and the concentrations of the substrate were varied from 0.1 to 500 μM. Reaction was started with the enzyme and the fluorescence signal of the Abz-SVTLQ peptide cleavage product was monitored at an emission wavelength of 420 nm with excitation at 320 nm, using an Flx800 fluorescence spectrophotometer (BioTek). Before kinetic calculations, it was verified that the proportionality between the fluorescence emitted and the amount of the substrate used in the assay was linear. The minimal concentration of the enzyme and time of reaction that gave a linear dependence of amount of generated product with time was chosen. Initial velocities in corresponding relative fluorescence units per unit of time (ARFU/s) were converted to the amount of the cleaved substrate per unit of time (M/s) by fitting to the calibration curve of free Aminobenzoyl-SVTLQ. All data are corrected for inner filter effects by an adopted literature protocol. In short, the fluorescence signal (RFU) at each substrate concentration was determined and defined as f(FRET). Then, 5 μL free Aminobenzoyl-SVTLQ at final 5 μM was added to each concentration and fluorescence was taken f(FRET+Aminobenzoyl-SVTLQ). Simultaneously, a reference reading was taken with the same free Aminobenzoyl-SVTLQ concentration and defined as f(ref). The inner-filter correction was obtained as:
Stock solutions of the compounds were prepared with DMSO. For the determination of the IC50, 80 nM of SARS-CoV-2 3CLP was incubated with the compounds at various concentrations from 0 to 100 μM in 20 mM Bis-Tris, pH 7.8, 1 mM DTT at 37° C. for 10 min. The protease reaction was started by addition of 100 μM of the substrate. The GraphPad Prism 6.0 software (GraphPad) was used for the calculation of the IC50 values.

In data set [2] the test system is SARS-CoV-2. Nature of the data set: SARS-CoV-2 plaque reduction assay in Vero E6 cells. It counts as cell-based. Conditions: Severe acute respiratory syndrome coronavirus 2, Vero C1008, 48 h, read-out: SARS-CoV-2 Antiviral EC50. A general note: Plaque reduction counts the foci of infection that form in a cell layer.
The nature of data set [3]: in vitro. It counts as cell-based. Conditions: male, human (A549); green monkey (Vero E6). The protocol:
Cell viability was measured using the CellTiter-Glo luminescent cell viability assay (Promega). Separately A549 (human lung epithelial) cells and VeroE6 cells were seeded at 5×10^3 cells/well in 96-well plates and incubated overnight before treatment. Compounds were solubilized in DMSO and added to cells in an eight-point four-fold serial dilution (200 μM to 0.0122 μM). Cells were incubated in the presence of compounds for 24 hours before addition of the luminescence substrate and measurement of ATP activity according to manufacturer's instructions. The percentage of viable cells was calculated relative to cells treated with solvent alone (0.5% DMSO).

Data set [4] is described as follows: Microsomal stability, mouse liver microsomes. The data set is classed as in vitro ADME. How it is done:
(§1) Experiments were performed to assess the stability of the compounds in the presence of mouse and human liver microsomes. The experimental procedures there were used are described below. Examples of the percent remaining of the compound curves in the presence of human microsomes are shown in FIGS. 2A to 2F, and examples of the determined half-life are provided in TABLE 3.
(§2) Intermediate solution: 5 μL of compound and control stock solution (10 mM in dimethyl sulfoxide (DMSO)) were diluted with 495 μL of acetonitrile (ACN) (intermediate solution concentration: 100 μM, 99% ACN).
(§3) Working solution: 50 μL of compound and control intermediate solution (100 μM) were diluted with 450 μL of 100 mM potassium phosphate buffer (working solution concentration: 10 μM, 9.9% ACN).
(§4) The appropriate amount of NADPH powder was weighed and diluted into a 10 mM MgCl2 solution (working solution concentration: 10 unit/mL; final concentration in reaction system: 1 unit/mL).
(§5) The appropriate concentrations of microsome working solutions were prepared in 100 mM potassium phosphate buffer.
(§6) Cold (4° C.) acetonitrile (ACN) containing 200 ng/mL tolbutamide and 200 ng/mL labetalol as internal standards (IS) was used as the stop solution.
(§7) Using an Apricot automation workstation, 10 μL/well of compound working solution were added to all 96-well reaction plates except the blank (T0, T5, T10, T20, T30, T60, and NCF60). An Apricot automation workstation was used to add 80 μL/well of microsome solution to all reaction plates (Blank, T0, T5, T10, T20, T30, T60, and NCF60). All reaction plates containing mixtures of compound and microsomes were pre-incubated at 37° C. for 10 minutes. An Apricot automation workstation was used to add 10 μL/well of 100 mM potassium phosphate buffer to reaction plate NCF60. Reaction plate NCF60 was incubated at 37° C., and timer 1 was started. After pre-incubation, an Apricot automation workstation was used to add 10 μL/well of NADPH regenerating system to every reaction plate except NCF60 (Blank, T0, T5, T10, T20, T30, and T60) to start the reaction. The reaction plates were incubated at 37° C., and timer 2 was started. An Apricot automation workstation was used to add 300 μL/well of stop solution to each reaction plate at its appropriate end time point to terminate the reaction. Each plate was sealed and shaken for 10 minutes. After shaking, each plate was centrifuged at 4000 rpm and 4° C. for 20 minutes. During centrifugation, an Apricot automation workstation was used to add 300 μL/well of HPLC grade water to eight new 96-well plates. After centrifugation, an Apricot automation workstation was used to transfer 100 μL of supernatant from each reaction plate to its corresponding bioanaylsis plate. Each bioanalysis plate was sealed and shaken for 10 minutes prior to LC-MS/MS analysis.
(§8) The equation of first order kinetics was used to calculate T½: […]
For orientation: Liver microsomes are vesicles of endoplasmic reticulum, rich in cytochrome P450 enzymes.

Data set [5] can be described thus: Microsomal stability, human liver microsomes. The data set is classed as in vitro ADME. How it is done: as §1, §2, §3, §4, §5, §6, §7, §8
The mark [6] stands for this setting: mouse liver microsomes, NADPH, 37° C., read-out: Mouse Microsomes Half-life.
Setting [7] is: human liver microsomes, NADPH, 37° C., read-out: Human Microsomes Half-life.

Each structure is given as a SMILES string.

In general, IC50 refers to the concentration that gives 50% inhibition. Broadly, the EC50 is the concentration at which the effect is half-maximal. Usually CC50 stands for the concentration at which the toxic effect on the cells reaches its halfway point. In general, half-life refers to the time in which the quantity being followed falls by half.

As to `O=C(N[C@@H](CC1CC1)C(=O)N[C@@H](C[C@@H]1CCNC1=O)C(=O)CO)c1cc2cccc(Cl)c2[nH]1` [Compound 4, 7-chloro-N-[(2S)-3-cyclopropyl-1-({(2S)-4-hydroxy-3-oxo-1-[(3S)-2-oxopyrrolidin-3-yl]butan-2-yl}amino)-1-oxopropan-2-yl]-1H-indole-2-carboxamide], in data set [1], the IC50 was less than 0.01 µM. Also, in data set [2], the EC50 was less than 5 µM. This molecule yielded a CC50 at 24 h in data set [3] of more than 200 µM. Also, the half-life at 1 μM came to 38 min in data set [4] (setting [6]) and 76 min in data set [5] (setting [7]).
On to `COc1cccc2[nH]c(C(=O)N[C@@H](CC(C)C)C(=O)N[C@@H](C[C@@H]3CCCNC3=O)C(=O)CO)cc12` [AVI-8004, reference compound], for which the half-life at 1 μM was 12 min in data set [4] (mouse, microsomes) and 34 min in data set [5] (human, microsomes).
For `CC(C)[C@H](N)C(=O)OCC(=O)[C@H](C[C@@H]1CCCNC1=O)NC(=O)[C@H](CC1CC1)NC(=O)c1cc2cc(F)cc(F)c2[nH]1.Cl` [Compound 17, (3S)-3-{[3-cyclopropyl-N-(5,7-difluoro-1H-indole-2-carbonyl)-L-alanyl]amino}-2-oxo-4-[(3S)-2-oxopiperidin-3-yl]butyl L-valinate hydrochloride Salt], the half-inhibitory concentration (IC50) in data set [1] was less than 0.05 µM. Moreover, the half-maximal effective concentration (EC50) in data set [2] was less than 5 µM. The molecule further returned a CC50 at 24 h in data set [3] of more than 200 µM. Moreover, the half-life at 1 μM in data set [4] (setting [6]) and in data set [5] (setting [7]) was 6 min in each case.
In the case of `O=C(N[C@@H](CC1CC1)C(=O)N[C@@H](C[C@@H]1CCCNC1=O)C(=O)CO)c1cc2cccc(F)c2[nH]1` [Compound 9, N-[(2S)-3-cyclopropyl-1-({(2S)-4-hydroxy-3-oxo-1-[(3S)-2-oxopiperidin-3-yl]butan-2-yl}amino)-1-oxopropan-2-yl]-7-fluoro-1H-indole-2-carboxamide], the IC50 in data set [1] is less than 0.01 µM. Moreover, the 50% effective concentration (EC50) in data set [2] was less than 5 µM. This molecule gave a CC50 at 24 h in data set [3] of more than 200 µM. In addition, the half-life at 1 μM in data set [4] (setting [6]) was determined as 91 min; in data set [5] (setting [7]), 74 min.
With `N#C[C@H](C[C@@H]1CCCNC1=O)NC(=O)[C@H](CC1CC1)NC(=O)c1cc2cccc(Cl)c2[nH]1` [PBI-0451, reference compound], the half-life at 1 μM in data set [4] (mouse, microsomes) came to 12 min; in data set [5] (human, microsomes), 11 min.
In the same order, the values of `COc1cccc2[nH]c(C(=O)N[C@@H](CC(C)C)C(=O)N[C@H](C#N)C[C@@H]3CCCNC3=O)cc12` [AVI-8059, reference compound] are 10 min and 16 min.
For the molecule `O=C(N[C@@H](CC1CC1)C(=O)N[C@@H](C[C@@H]1CCNC1=O)C(=O)CO)c1cc2cc(F)cc(F)c2[nH]1` [Compound 3, N-[(2S)-3-cyclopropyl-1-({(2S)-4-hydroxy-3-oxo-1-[(3S)-2-oxopyrrolidin-3-yl]butan-2-yl}amino)-1-oxopropan-2-yl]-5,7-difluoro-1H-indole-2-carboxamide], the IC50 in data set [1] was less than 0.01 µM. In data set [2], the EC50 is less than 5 µM. The CC50 at 24 h in data set [3] was more than 200 µM. Moreover, the half-life at 1 μM in data set [4] (setting [6]) was 124 min; in data set [5] (setting [7]) it was more than 145 min.
For `O=C(N[C@@H](CC1CC1)C(=O)N[C@@H](C[C@@H]1CCCNC1=O)C(=O)CO)c1cc2cccc(Cl)c2[nH]1` [Compound 2, 7-chloro-N-[(2S)-3-cyclopropyl-1-({(2S)-4-hydroxy-3-oxo-1-[(3S)-2-oxopiperidin-3-yl]butan-2-yl}amino)-1-oxopropan-2-yl]-1H-indole-2-carboxamide] the same measures were less than 0.05 µM, less than 5 µM, more than 200 µM, 15 min and 26 min.
For the molecule `O=C(N[C@@H](CC1CC1)C(=O)N[C@@H](C[C@@H]1CCCNC1=O)C(=O)CO)c1cc2cc(F)cc(F)c2[nH]1` [Compound 1, N-[(2S)-3-cyclopropyl-1-({(2S)-4-hydroxy-3-oxo-1-[(3S)-2-oxopiperidin-3-yl]butan-2-yl}amino)-1-oxopropan-2-yl]-5,7-difluoro-1H-indole-2-carboxamide], the IC50 in data set [1] was less than 0.05 µM. Moreover, the EC50 in data set [2] is less than 10 µM. For the same molecule, the CC50 at 24 h in data set [3] is more than 200 µM. The half-life at 1 μM in data set [4] (setting [6]) worked out at 57 min; in data set [5] (setting [7]) it was 46 min.
In the case of `CC(C)(C)[C@H](NC(=O)C(F)(F)F)C(=O)N1C[C@H]2[C@@H]([C@H]1C(=O)N[C@H](C#N)C[C@@H]1CCNC1=O)C2(C)C` [nirmatrelvir, reference compound], the half-life at 1 μM in data set [4] (mouse, microsomes) is 15 min; in data set [5] (human, microsomes), 40 min.
Take `O=C(N[C@@H](CC1CC1)C(=O)N[C@@H](C[C@@H]1CCNC1=O)C(=O)CO)c1cc2cccc(F)c2[nH]1` [Compound 5, N-[(2S)-3-cyclopropyl-1-({(2S)-4-hydroxy-3-oxo-1-[(3S)-2-oxopyrrolidin-3-yl]butan-2-yl}amino)-1-oxopropan-2-yl]-7-fluoro-1H-indole-2-carboxamide]: the IC50 in data set [1] was less than 0.05 µM. In addition, the EC50 in data set [2] was 5 to 10 µM. Besides, the CC50 at 24 h in data set [3] was more than 200 µM. For the same molecule, the half-life at 1 μM in data set [4] (setting [6]) was 124 min; in data set [5] (setting [7]), more than 145 min.

Values taken from patent US20230399296A1, “RNA VIRUS INHIBITOR COMPOUNDS WITH IMPROVED METABOLIC STABILITY AND USES THEREOF” (priority 2022, published 2023).
